In ChEMBL document CHEMBL4732135, “Structural and mechanistic insights into the inhibition of amyloid-β aggregation by Aβ fragment derived synthetic peptides” (Eur J Med Chem, 2021):
Active and inactive are the calls of the source. No cut-off for these calls is given here. Square brackets hold non-standard residues; d marks the D form. Peptide text beside a SMILES is read from it. ξ: configuration not given here. Oic(3aξ,7aξ) = O=C(O)[C@@H]1CC2CCCCC2N1; Phe(4-F) = N[C@@H](Cc1ccc(F)cc1)C(=O)O; Abu = CC[C@H](N)C(=O)O

What was measured:
PC-12 [1] = assay: Neuroprotective activity against amyloid beta 42-induced toxicity in rat PC-12 cells assessed as cell viability at 10 uM measured after 6 hrs by MTT assay (reference value: 74.05%); assay type: functional; conditions: read-out: Activity
PC-12 [2] = assay: Neuroprotective activity against amyloid beta 42-induced toxicity in rat PC-12 cells assessed as cell viability at 4 uM measured after 6 hrs by MTT assay (reference value: 74.05%); assay type: functional; conditions: read-out: Activity
PC-12 [3] = assay: Neuroprotective activity against amyloid beta 42-induced toxicity in rat PC-12 cells assessed as cell viability at 2 uM measured after 6 hrs by MTT assay (reference value: 74.05%); assay type: functional; conditions: read-out: Activity
[4] = target: Amyloid-beta precursor protein (Homo sapiens) (UniProt P05067); assay: Inhibition of amyloid beta (1 to 42) (unknown origin) assessed as reduction in peptide aggregation at 10 uM measured after 24 hrs by thioflavin-T fluorescence assay relative to control
[5] = target: Amyloid-beta precursor protein (Homo sapiens) (UniProt P05067); assay: Inhibition of amyloid beta (1 to 42) (unknown origin) assessed as reduction in peptide aggregation at 4 uM measured after 24 hrs by thioflavin-T fluorescence assay relative to control
[6] = target: Amyloid-beta precursor protein (Homo sapiens) (UniProt P05067); assay: Inhibition of amyloid beta (1 to 42) (unknown origin) assessed as reduction in peptide aggregation at 2 uM measured after 24 hrs by thioflavin-T fluorescence assay relative to control
[7] = Effective permeability of compound in pH 8 PBS buffer by PAMPA-BBB assay; assay type: ADME
Cortical neurone [8] = assay: Neuroprotective activity against amyloid beta 42-induced toxicity in rat primary cortical neurons at 10 uM; assay type: functional, cell-based
[9] = target: Amyloid-beta precursor protein (Homo sapiens) (UniProt P05067); assay: Inhibition of amyloid beta (1 to 42) (unknown origin) aggregation assessed as relative fluorescence unit at 10 uM measured after 24 hrs by thioflavin-T fluorescence assay (reference value: 100%)
[10] = target: Amyloid-beta precursor protein (Homo sapiens) (UniProt P05067); assay: Inhibition of amyloid beta (1 to 42) (unknown origin) aggregation assessed as relative fluorescence unit at 4 uM measured after 24 hrs by thioflavin-T fluorescence assay (reference value: 100%)
[11] = target: Amyloid-beta precursor protein (Homo sapiens) (UniProt P05067); assay: Inhibition of amyloid beta (1 to 42) (unknown origin) aggregation assessed as relative fluorescence unit at 2 uM measured after 24 hrs by thioflavin-T fluorescence assay (reference value: 100%)
Cortical neurone [12] = assay: Neuroprotective activity against amyloid beta 42-induced toxicity in rat primary cortical neurons at 0.1 uM; assay type: functional, cell-based
PC-12 [13] = assay: Neuroprotective activity against amyloid beta 42-induced toxicity in rat PC-12 cells assessed as cell viability at 1 uM measured after 6 hrs by MTT assay (reference value: 73.8%); assay type: functional; conditions: read-out: Activity
PC-12 [14] = assay: Neuroprotective activity against amyloid beta 42-induced toxicity in rat PC-12 cells assessed as cell viability at 0.5 uM measured after 6 hrs by MTT assay (reference value: 73.8%); assay type: functional; conditions: read-out: Activity
PC-12 [15] = assay: Neuroprotective activity against amyloid beta 42-induced toxicity in rat PC-12 cells assessed as cell viability at 0.1 uM measured after 6 hrs by MTT assay (reference value: 73.8%); assay type: functional; conditions: read-out: Activity
[16] = target: Amyloid-beta precursor protein (Homo sapiens) (UniProt P05067); assay: Inhibition of amyloid beta (1 to 42) (unknown origin) assessed as reduction in peptide aggregation at 1 uM measured after 24 hrs by thioflavin-T fluorescence assay relative to control
[17] = target: Amyloid-beta precursor protein (Homo sapiens) (UniProt P05067); assay: Inhibition of amyloid beta (1 to 42) (unknown origin) assessed as reduction in peptide aggregation at 0.5 uM measured after 24 hrs by thioflavin-T fluorescence assay relative to control
[18] = target: Amyloid-beta precursor protein (Homo sapiens) (UniProt P05067); assay: Inhibition of amyloid beta (1 to 42) (unknown origin) assessed as reduction in peptide aggregation at 0.1 uM measured after 24 hrs by thioflavin-T fluorescence assay relative to control
[19] = target: Amyloid-beta precursor protein (Homo sapiens) (UniProt P05067); assay: Disaggregation of preformed amyloid beta (1 to 42) (unknown origin) aggregation at 2 uM measured at 24 hrs interval for 120 hrs by thioflavin-T fluorescence assay relative to control
[20] = target: Amyloid-beta precursor protein (Homo sapiens) (UniProt P05067); assay: Disaggregation of preformed amyloid beta (1 to 42) (unknown origin) aggregation at 1 uM measured at 24 hrs interval for 120 hrs by thioflavin-T fluorescence assay relative to control
[21] = target: Amyloid-beta precursor protein (Homo sapiens) (UniProt P05067); assay: Disaggregation of preformed amyloid beta (1 to 42) (unknown origin) aggregation at 0.5 uM measured at 24 hrs interval for 120 hrs by thioflavin-T fluorescence assay relative to control
[22] = target: Amyloid-beta precursor protein (Homo sapiens) (UniProt P05067); assay: Disaggregation of preformed amyloid beta (1 to 42) (unknown origin) aggregation at 2 uM by thioflavin-T fluorescence assay; conditions: time 24-120 hrs, TDE = time-dependent effect
[23] = target: Amyloid-beta precursor protein (Homo sapiens) (UniProt P05067); assay: Inhibition of amyloid beta (1 to 42) (unknown origin) assessed as reduction in peptide aggregation at 0.5 to 2 uM measured at 24 hrs interval for […] by thioflavin-T fluorescence assay; conditions: dose 0.5-2 µM
[24] = target: Amyloid-beta precursor protein (Homo sapiens) (UniProt P05067); assay: Inhibition of amyloid beta (1 to 42) (unknown origin) aggregation at 2 uM measured after 24 hrs by ANS dye based fluorescence assay
[25] = target: Amyloid-beta precursor protein (Homo sapiens) (UniProt P05067); assay: Disaggregation of preformed amyloid beta (1 to 42) (unknown origin) aggregation at 2 uM measured after 24 hrs by ANS dye based fluorescence assay
[26] = target: Amyloid-beta precursor protein (Homo sapiens) (UniProt P05067); assay: Inhibition of amyloid beta (1 to 42) (unknown origin) aggregation at 2 uM measured after 24 hrs in presence of giant unilamellar vesicles by ANS dye based fluorescence assay
[27] = target: Amyloid-beta precursor protein (Homo sapiens) (UniProt P05067); assay: Inhibition of amyloid beta (1 to 42) (unknown origin) aggregation measured after 24 hrs by tyrosine fluorescence assay
[28] = target: Amyloid-beta precursor protein (Homo sapiens) (UniProt P05067); assay: Inhibition of amyloid beta (1 to 42) (unknown origin) aggregation assessed as protein with beta sheet conformation at 10 uM measured after 24 hrs by circular dichroism analysis (reference value: 66.4%); design: scale not given: the % may be the effect or the level left
[29] = target: Amyloid-beta precursor protein (Homo sapiens) (UniProt P05067); assay: Inhibition of amyloid beta (1 to 42) (unknown origin) aggregation assessed as protein with random coil conformation at 10 uM measured after 24 hrs by circular dichroism analysis (reference value: 5%); design: scale not given: the % may be the effect or the level left
PC-12 [30] = assay: Cytotoxicity against rat PC-12 cells assessed as reduction in cell viability at 20 uM measured after 6 hrs by MTT assay; assay type: cell-based; conditions: pc-12, 6 h
Cortical neurone [31] = assay: Cytotoxicity against rat primary cortical neuron assessed as reduction in cell viability at 20 uM measured after 6 hrs by MTT assay; assay type: cell-based
[32] = target: Amyloid-beta precursor protein (Homo sapiens) (UniProt P05067); assay: Binding affinity to amyloid beta (1 to 42) (unknown origin) assessed as amyloid beta (25 to 42)-adduct formation at 10 uM measured after 24 hrs by ESI-HRMS analysis
[33] = target: Amyloid-beta precursor protein (Homo sapiens) (UniProt P05067); assay: Binding affinity to amyloid beta (1 to 42) (unknown origin) assessed as amyloid beta (2 to 42)-adduct formation at 10 uM measured after 24 hrs by ESI-HRMS analysis
[34] = target: Amyloid-beta precursor protein (Homo sapiens) (UniProt P05067); assay: Binding affinity to amyloid beta (1 to 42) (unknown origin) assessed as absence of fibrillar assembly at 10 uM measured after 24 hrs by HR-TEM analysis
[35] = target: Amyloid-beta precursor protein (Homo sapiens) (UniProt P05067); assay: Binding affinity to amyloid beta (1 to 42) (unknown origin) assessed as absence of fibrillar assembly at 10 uM measured after 24 hrs by STEM analysis
[36] = Stability of compound in serum (unknown origin) at 5 uM measured up to 12 hrs by HPLC analysis; assay type: ADME, cell-free; conditions: read-out: Stabilty
[37] = Stability of compound in serum (unknown origin) assessed as peptide cleavage at 5 uM measured after 24 hrs by MS analysis; assay type: ADME, cell-free
[38] = target: Amyloid-beta precursor protein (Homo sapiens) (UniProt P05067); assay: Binding affinity to amyloid beta (1 to 42) (unknown origin) at 10 uM measured after 24 hrs by ESI-HRMS analysis
[39] = target: Amyloid-beta precursor protein (Homo sapiens) (UniProt P05067); assay: Binding affinity to amyloid beta (1 to 42) (unknown origin) assessed as amyloid beta (27 to 42)-adduct formation at 10 uM measured after 24 hrs by ESI-HRMS analysis

Amyloid-beta precursor protein (Homo sapiens), sequence (P05067 whole entry): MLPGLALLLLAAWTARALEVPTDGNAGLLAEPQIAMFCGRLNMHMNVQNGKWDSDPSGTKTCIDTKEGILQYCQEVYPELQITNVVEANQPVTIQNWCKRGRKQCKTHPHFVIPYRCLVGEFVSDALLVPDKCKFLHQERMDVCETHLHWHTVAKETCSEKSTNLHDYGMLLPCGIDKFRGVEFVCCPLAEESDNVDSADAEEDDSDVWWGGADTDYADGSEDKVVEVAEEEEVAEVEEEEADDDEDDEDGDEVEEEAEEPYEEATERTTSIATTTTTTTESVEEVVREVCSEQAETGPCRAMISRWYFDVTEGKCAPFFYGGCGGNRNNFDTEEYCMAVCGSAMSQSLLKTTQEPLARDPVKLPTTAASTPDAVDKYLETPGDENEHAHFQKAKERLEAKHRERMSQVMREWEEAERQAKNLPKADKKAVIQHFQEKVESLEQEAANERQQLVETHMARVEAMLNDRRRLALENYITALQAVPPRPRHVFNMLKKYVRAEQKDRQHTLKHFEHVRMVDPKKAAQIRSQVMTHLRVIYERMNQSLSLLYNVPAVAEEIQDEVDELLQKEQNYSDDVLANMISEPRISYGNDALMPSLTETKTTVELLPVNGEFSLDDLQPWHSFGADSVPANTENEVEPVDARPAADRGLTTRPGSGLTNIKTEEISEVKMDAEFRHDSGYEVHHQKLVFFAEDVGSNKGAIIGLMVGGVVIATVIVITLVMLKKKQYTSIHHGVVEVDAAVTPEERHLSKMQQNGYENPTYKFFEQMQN

| Structure (SMILES) | viability at 10 µM (PC-12 [1]) | viability at 4 µM (PC-12 [2]) | viability at 2 µM (PC-12 [3]) | inhibition [4] | inhibition [5] | inhibition [6] | Peff [7] | RFU [9] | RFU [10] | RFU [11] | Activity (Cortical neurone [12]) | viability at 1 µM (PC-12 [13]) | viability at 0.5 µM (PC-12 [14]) | viability at 0.1 µM (PC-12 [15]) | inhibition [16] | inhibition [17] | inhibition [18] | Activity [22] | Activity (PC-12 [30]) | Activity (Cortical neurone [31]) | further results |
| --- | --- | --- | --- | --- | --- | --- | --- | --- | --- | --- | --- | --- | --- | --- | --- | --- | --- | --- | --- | --- | --- |
| CC[C@H](C)[C@H](NC(=O)[C@@H](NC(=O)[C@@H](N)C(C)C)C(C)C)C(=O)N[C@@H](C)C(=O)O (H-VVIA-OH) | 93.6% | 90.5% | 78.9% | 66.2% | 60.6% | 33.9% | Permeable |  |  |  |  |  |  |  |  |  |  |  |  |  |  |
| Oc1ccc(/C=C/c2cc(O)cc(O)c2)cc1 |  |  |  |  |  |  |  |  |  |  |  |  |  |  |  |  |  |  |  |  | Activity (Cortical neurone [8]): Active |
| CC[C@H](C)[C@H](NC(=O)[C@@H](NC(=O)[C@@H](N)Cc1ccc(F)cc1)C(C)C)C(=O)N[C@@H](C)C(=O)O (H-[Phe(4-F)]VIA-OH) | 100% | 100% | 100% | 91.7% | 97.5% | 100% | Permeable | 57.2% | 54.5% | 53.1% | Active | 97.2% | 83.1% | 79.3% | 83.1% | 81% | 79.9% | Tde | Non-Toxic | Non-Toxic | inhibition [19]: 61%; inhibition [20]: 42.5%; inhibition [21]: 32.1%; inhibition [23]: Active; inhibition [24]: Active; Activity [25]: Active; inhibition [26]: Active; inhibition [27]: Active; Activity [28]: 13.6%; Activity [29]: 97.6%; Activity [32]: Active; Activity [33]: Active; Activity [34]: Active; Activity [35]: Active; remaining at 12 h, 5 µM [36]: 90%; Stabilty [37]: Unstable |
| CC[C@H](NC(=O)[C@@H](N)CC)C(=O)N[C@H](C(=O)N[C@@H](C)C(=O)O)[C@@H](C)CC (H-[Abu][Abu]IA-OH) | 92.1% | 100% | 100% | 88.7% | 90.2% | 97.7% |  |  |  |  |  |  |  |  |  |  |  |  | Non-Toxic | Non-Toxic |  |
| CC[C@H](C)[C@H](NC(=O)[C@H](Cc1ccccc1)NC(=O)[C@@H](N)Cc1ccccc1)C(=O)N[C@@H](C)C(=O)O (H-FFIA-OH) | 83.8% | 100% | 98% | 100% | 97.2% | 92.2% | Permeable |  |  |  |  |  |  |  |  |  |  |  | Non-Toxic | Non-Toxic |  |
| CC[C@H](C)[C@H](NC(=O)[C@@H]1CC2CCCCC2N1C(=O)[C@@H](N)C(C)C)C(=O)N[C@@H](C)C(=O)O (some centres undefined) (H-V[Oic(3aξ,7aξ)]IA-OH) | 100% | 100% | 100% | 100% | 100% | 100% | Permeable | 53.2% | 53.3% | 53% | Active | 92.3% | 80.5% | 84.9% | 74.8% | 68% | 61.2% | Tde | Non-Toxic | Non-Toxic | inhibition [23]: Active; inhibition [24]: Active; Activity [25]: Active; inhibition [26]: Active; inhibition [27]: Active; Activity [28]: 14.2%; Activity [29]: 60%; Activity [38]: Active; Activity [39]: Active; Activity [34]: Active; Activity [35]: Active; remaining at 12 h, 5 µM [36]: 90%; Stabilty [37]: Unstable |
